This experiment concerns the target T1, tubulin (alpha/beta heterodimer).
T1 construct: purified goat brain tubulin; with alpha-tubulin/beta-tubulin heterodimer
In words: intrinsic tryptophan fluorescence quenching; also competition with colchicine and inhibition of tubulin polymerization. It counts as binding, Capra hircus.

Kd data for 1 compound are collected here from article PMC6496756, “Zerumbone, a cyclic sesquiterpene, exerts antimitotic activity in HeLa cells through tubulin binding and exhibits synergistic activity with vinblastine and paclitaxel” (Cell Proliferation, 2018).

As usually defined, the Kd is the equilibrium constant for the complex coming apart. A lower Kd goes with tighter binding.

Take `C/C1=C\CC(C)(C)/C=C/C(=O)/C(C)=C/CC1` [zerumbone, (2E,6E,10E)‐2,6,9,9‐tetramethylcycloundeca‐2,6,10‐trien‐1‐one]: the affinity, expressed as Kd, was 4 µM.
